Patent US4399126A, “Modulators of the complement system” (American Cyanamid Company, priority 1982, dated 1983)
Like-named read-outs stand apart in the source and are kept apart here.

What was measured:
[1] = target: T1, activated human C1 (Homo sapiens, UniProt P09871); experiment: Test Code 026 (C1 inhibitor); format: biochemical; settings: serial twofold dilution assay; higher well number indicates higher activity
T1 sequence (P09871 16-437 limits assumed): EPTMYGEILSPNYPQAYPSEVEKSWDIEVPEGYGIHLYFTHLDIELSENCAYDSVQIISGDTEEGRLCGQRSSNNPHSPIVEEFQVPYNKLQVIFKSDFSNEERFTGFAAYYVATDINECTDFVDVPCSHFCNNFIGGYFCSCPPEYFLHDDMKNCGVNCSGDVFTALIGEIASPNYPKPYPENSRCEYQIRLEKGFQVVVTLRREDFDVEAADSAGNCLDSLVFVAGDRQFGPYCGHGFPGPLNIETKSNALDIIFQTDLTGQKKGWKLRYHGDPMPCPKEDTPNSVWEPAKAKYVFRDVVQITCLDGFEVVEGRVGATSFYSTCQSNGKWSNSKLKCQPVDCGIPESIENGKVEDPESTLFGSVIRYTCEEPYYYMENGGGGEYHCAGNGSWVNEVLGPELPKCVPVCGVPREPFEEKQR
T1 sequence (P09871 438-688 limits assumed): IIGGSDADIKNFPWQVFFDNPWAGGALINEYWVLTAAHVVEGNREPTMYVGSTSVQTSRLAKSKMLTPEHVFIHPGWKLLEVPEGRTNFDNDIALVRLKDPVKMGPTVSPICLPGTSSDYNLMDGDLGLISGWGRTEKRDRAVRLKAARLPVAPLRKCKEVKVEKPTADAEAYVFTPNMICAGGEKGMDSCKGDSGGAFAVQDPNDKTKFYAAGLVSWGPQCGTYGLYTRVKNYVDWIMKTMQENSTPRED

[2] = system: late components of human complement (C3-C9); experiment: Test Code 035 (C3-C9 inhibitor), lysis of EAC 142; format: biochemical; settings: serial twofold dilution assay; higher well number indicates higher activity
[3] = system: complement activity of sera; experiment: Guinea Pig Intraperitoneal Test (GPIP); format: in vivo; settings: Cavia porcellus, ip, 200 mg/kg i.p., capillary complement assay
Method: Percent inhibition is calculated by comparison with simultaneous controls.

[4] = blood 2 hours after injection, read-out: in vivo Activity Guinea Pig % Inhibition Intraperitoneal, 2 hours
[5] = blood 6 hours after injection, read-out: in vivo Activity Guinea Pig % Inhibition Intraperitoneal, 6 hours
[6] = blood 24 hours after injection, read-out: in vivo Activity Guinea Pig % Inhibition Intraperitoneal, 24 hours

SMILES	in vitro Activity Cl 026 Wells [1]	in vitro Activity C-Late 035 Wells [2]	inhibition at 200 mg/kg [3, 4]	inhibition at 200 mg/kg [3, 5]	inhibition at 200 mg/kg [3, 6]
O=C(CCC(=O)Nc1ccc(S[C@@H]2O[C@H](COS(=O)(=O)O)[C@@H](O[C@H]3O[C@H](COS(=O)(=O)O)[C@@H](OS(=O)(=O)O)[C@H](OS(=O)(=O)O)[C@H]3OS(=O)(=O)O)[C@H](OS(=O)(=O)O)[C@H]2OS(=O)(=O)O)cc1)Nc1ccc(S[C@@H]2O[C@H](COS(=O)(=O)O)[C@@H](O[C@H]3O[C@H](COS(=O)(=O)O)[C@@H](OS(=O)(=O)O)[C@H](OS(=O)(=O)O)[C@H]3OS(=O)(=O)O)[C@H](OS(=O)(=O)O)[C@H]2OS(=O)(=O)O)cc1 [Tetradecasodium N,N'--bis[4-[2,3,6-tri-O--sulfo-4-O--(2,3,4,6-tetra-O--sulfo-α-D-glucopyranosyl)-β -D-glucopyranosylthio]phenyl]butanediamide]	10.2 Wells	1.4 Wells			
O=C(CCCCCCC(=O)Nc1ccc(S[C@@H]2O[C@H](COS(=O)(=O)O)[C@@H](O[C@H]3O[C@H](COS(=O)(=O)O)[C@@H](OS(=O)(=O)O)[C@H](OS(=O)(=O)O)[C@H]3OS(=O)(=O)O)[C@H](OS(=O)(=O)O)[C@H]2OS(=O)(=O)O)cc1)Nc1ccc(S[C@@H]2O[C@H](COS(=O)(=O)O)[C@@H](O[C@H]3O[C@H](COS(=O)(=O)O)[C@@H](OS(=O)(=O)O)[C@H](OS(=O)(=O)O)[C@H]3OS(=O)(=O)O)[C@H](OS(=O)(=O)O)[C@H]2OS(=O)(=O)O)cc1.[Na].[Na].[Na].[Na].[Na].[Na].[Na].[Na].[Na].[Na].[Na].[Na].[Na].[Na] [Tetradecasodium N,N'-bis[4-[2,3,6-tri-O-sulfo-4-O-(2,3,4,6-tetra-O-sulfo-α-D-glucopyranosyl)-β-D-glucopyranosylthio]phenyl]octanediamide]	9 Wells	1.5 Wells	87%	71%	44%
O=C(CCCCCCCCC(=O)Nc1ccc(S[C@@H]2O[C@H](COS(=O)(=O)O)[C@@H](O[C@H]3O[C@H](COS(=O)(=O)O)[C@@H](OS(=O)(=O)O)[C@H](OS(=O)(=O)O)[C@H]3OS(=O)(=O)O)[C@H](OS(=O)(=O)O)[C@H]2OS(=O)(=O)O)cc1)Nc1ccc(S[C@@H]2O[C@H](COS(=O)(=O)O)[C@@H](O[C@H]3O[C@H](COS(=O)(=O)O)[C@@H](OS(=O)(=O)O)[C@H](OS(=O)(=O)O)[C@H]3OS(=O)(=O)O)[C@H](OS(=O)(=O)O)[C@H]2OS(=O)(=O)O)cc1.[Na].[Na].[Na].[Na].[Na].[Na].[Na].[Na].[Na].[Na].[Na].[Na].[Na].[Na] [tetradecasodium N,N'-bis[4-[2,3,6-tri-O-sulfo-4-O-(2,3,4,6-tetra-O-sulfo-α-D-glucopyranosyl)-β-D-glucopyranosylthio]phenyl]decanediamide]	5.0 Wells	0.8 Wells	88%	87%	75%
O=C(Nc1ccc(S[C@@H]2O[C@H](COS(=O)(=O)O)[C@@H](O[C@H]3O[C@H](COS(=O)(=O)O)[C@@H](OS(=O)(=O)O)[C@H](OS(=O)(=O)O)[C@H]3OS(=O)(=O)O)[C@H](OS(=O)(=O)O)[C@H]2OS(=O)(=O)O)cc1)C(=O)Nc1ccc(S[C@@H]2O[C@H](COS(=O)(=O)O)[C@@H](O[C@H]3O[C@H](COS(=O)(=O)O)[C@@H](OS(=O)(=O)O)[C@H](OS(=O)(=O)O)[C@H]3OS(=O)(=O)O)[C@H](OS(=O)(=O)O)[C@H]2OS(=O)(=O)O)cc1.[Na].[Na].[Na].[Na].[Na].[Na].[Na].[Na].[Na].[Na].[Na].[Na].[Na].[Na] [tetradecasodium N,N'-bis[4-[2,3,6-tri-O-sulfo-4-O-(2,3,4,6-tetra-O-sulfo-α-D-glucopyranosyl)-β-D-glucopyranosylthio]phenyl]ethanediamide]	9.5 Wells	1.2 Wells	90%	90%	80%
O=C(CCCCCC(=O)Nc1ccc(S[C@@H]2O[C@H](COS(=O)(=O)O)[C@@H](O[C@H]3O[C@H](COS(=O)(=O)O)[C@@H](OS(=O)(=O)O)[C@H](OS(=O)(=O)O)[C@H]3OS(=O)(=O)O)[C@H](OS(=O)(=O)O)[C@H]2OS(=O)(=O)O)cc1)Nc1ccc(S[C@@H]2O[C@H](COS(=O)(=O)O)[C@@H](O[C@H]3O[C@H](COS(=O)(=O)O)[C@@H](OS(=O)(=O)O)[C@H](OS(=O)(=O)O)[C@H]3OS(=O)(=O)O)[C@H](OS(=O)(=O)O)[C@H]2OS(=O)(=O)O)cc1.[Na].[Na].[Na].[Na].[Na].[Na].[Na].[Na].[Na].[Na].[Na].[Na].[Na].[Na] [tetradecasodium N,N'-bis[4-[2,3,6-tri-O-sulfo-4-O-(2,3,4,6-tetra-O-sulfo-α-D-glucopyranosyl)-β-D-glucopyranosylthio]phenyl]heptanediamide]	10.7 Wells	1.0 Wells	87%	87%	50%
O=C(CCCCC(=O)Nc1ccc(S[C@@H]2O[C@H](COS(=O)(=O)O)[C@@H](O[C@H]3O[C@H](COS(=O)(=O)O)[C@@H](OS(=O)(=O)O)[C@H](OS(=O)(=O)O)[C@H]3OS(=O)(=O)O)[C@H](OS(=O)(=O)O)[C@H]2OS(=O)(=O)O)cc1)Nc1ccc(S[C@@H]2O[C@H](COS(=O)(=O)O)[C@@H](O[C@H]3O[C@H](COS(=O)(=O)O)[C@@H](OS(=O)(=O)O)[C@H](OS(=O)(=O)O)[C@H]3OS(=O)(=O)O)[C@H](OS(=O)(=O)O)[C@H]2OS(=O)(=O)O)cc1.[Na].[Na].[Na].[Na].[Na].[Na].[Na].[Na].[Na].[Na].[Na].[Na].[Na].[Na] [tetradecasodium N,N'-bis[4-[2,3,6-tri-O-sulfo-4-O-(2,3,4,6-tetra-O-sulfo-α-D-glucopyranosyl)-β-D-glucopyranosylthio]phenyl]hexanediamide]	10.5 Wells	1.0 Wells	90%	85%	76%
O=C(CCCCCCCCCCCCC(=O)Nc1ccc(S[C@@H]2O[C@H](COS(=O)(=O)O)[C@@H](O[C@H]3O[C@H](COS(=O)(=O)O)[C@@H](OS(=O)(=O)O)[C@H](OS(=O)(=O)O)[C@H]3OS(=O)(=O)O)[C@H](OS(=O)(=O)O)[C@H]2OS(=O)(=O)O)cc1)Nc1ccc(S[C@@H]2O[C@H](COS(=O)(=O)O)[C@@H](O[C@H]3O[C@H](COS(=O)(=O)O)[C@@H](OS(=O)(=O)O)[C@H](OS(=O)(=O)O)[C@H]3OS(=O)(=O)O)[C@H](OS(=O)(=O)O)[C@H]2OS(=O)(=O)O)cc1.[Na].[Na].[Na].[Na].[Na].[Na].[Na].[Na].[Na].[Na].[Na].[Na].[Na].[Na] [tetradecasodium N,N'-bis[4-[2,3,6-tri-O-sulfo-4-O-(2,3,4,6-tetra-O-sulfo-α-D-glucopyranosyl)-β-D-glucopyranosylthio]phenyl]tetradecanediamide]	7 Wells	3.0 Wells			
O=C(CCCC(=O)Nc1ccc(S[C@@H]2O[C@H](COS(=O)(=O)O)[C@@H](O[C@@H]3O[C@H](COS(=O)(=O)O)[C@@H](OS(=O)(=O)O)[C@H](OS(=O)(=O)O)[C@H]3OS(=O)(=O)O)[C@H](OS(=O)(=O)O)[C@H]2OS(=O)(=O)O)cc1)Nc1ccc(S[C@@H]2O[C@H](COS(=O)(=O)O)[C@@H](O[C@@H]3O[C@H](COS(=O)(=O)O)[C@@H](OS(=O)(=O)O)[C@H](OS(=O)(=O)O)[C@H]3OS(=O)(=O)O)[C@H](OS(=O)(=O)O)[C@H]2OS(=O)(=O)O)cc1.[Na].[Na].[Na].[Na].[Na].[Na].[Na].[Na].[Na].[Na].[Na].[Na].[Na].[Na] [tetradecasodium N,N'-bis[4-[2,3,6-tri-O-sulfo-4-O-(2,3,4,6-tetra-O-sulfo-β-D-glucopyranosyl)-β-D-glucopyranosylthio]phenyl]pentanediamide]	12 Wells	2.0 Wells			
